Square brackets hold non-standard residues; d marks the D form. Peptide text beside a SMILES is read from it. * marks the point of attachment. Phe(4-Cl) = N[C@@H](Cc1ccc(Cl)cc1)C(=O)O; Phe(3-F) = N[C@@H](Cc1cccc(F)c1)C(=O)O; Dab(3S-OH) = NC[C@H](O)[C@H](N)C(=O)O; Hyp = O=C(O)[C@@H]1C[C@@H](O)CN1; ΔZArg = N=C(N)NCC/C=C(\N)C(=O)O; Lys(Me) = CNCCCC[C@H](N)C(=O)O; NMeK = CN[C@@H](CCCCN)C(=O)O; hLys = NCCCCC[C@H](N)C(=O)O; dOrn = NCCC[C@@H](N)C(=O)O; NMeA = CN[C@@H](C)C(=O)O; Aze = O=C(O)[C@@H]1CCN1; NH(CH2)4NH2 = NCCCCN*
Columns and labels:
Assay in all cases: MIC, broth microdilution (CLSI), reference strain
Details in all cases: CAMHB
[1] = system: Escherichia coli ATCC 25922
[2] = system: Pseudomonas aeruginosa ATCC 27853
[3] = system: Staphylococcus aureus ATCC 13709
[4] = system: Acinetobacter baumannii ATCC 19606

Structure (SMILES) | Ec: MIC Escherichia coli ATCC 25922 [1] | Pa: MIC Pseudomonas aeruginosa ATCC 27853 [2] | Sa: MIC Staphylococcus aureus ATCC 13709 [3] | Ab: MIC Acinetobacter baumannii ATCC 19606 [4]
C[C@H](NC(=O)[C@@H](NC(=O)[C@@H](N)CCCCN)[C@@H](O)CN)C(=O)NCC(=O)N[C@H](CCCN)C(=O)N1CCC[C@H]1C(=O)N[C@@H](CCC(N)=O)C(=O)N[C@@H](CCCCN)C(=O)N/C(=C\CCNC(=N)N)C(=O)N[C@@H](CCCCN)C(=O)NCCCCN [24.21] (H-K[Dab(3S-OH)]AG[dOrn]PQK[ΔZArg]K-{NH(CH2)4NH2}) | ++ (≤8 μg/mL) | − (>32 μg/mL) | ++ (≤8 μg/mL) | − (>32 μg/mL)
CNCCCC[C@H](N)C(=O)N[C@H](C(=O)N[C@@H](C)C(=O)NCC(=O)N[C@H](CCCN)C(=O)N1CCC[C@H]1C(=O)N[C@@H](Cc1cnc[nH]1)C(=O)N[C@@H](CCCCN)C(=O)N/C(=C\CCNC(=N)N)C(=O)N[C@@H](CCCCN)C(=O)NCCCCN)[C@@H](O)CN [24.43] (H-[Lys(Me)][Dab(3S-OH)]AG[dOrn]PHK[ΔZArg]K-{NH(CH2)4NH2}) | ++ (≤8 μg/mL) | + (≤32 μg/mL) | ++ (≤8 μg/mL) | − (>32 μg/mL)
CN[C@@H](CCCCN)C(=O)N[C@H](C(=O)N[C@@H](C)C(=O)NCC(=O)N[C@H](CCCN)C(=O)N1CCC[C@H]1C(=O)N[C@@H](Cc1cnc[nH]1)C(=O)N[C@@H](CCCCN)C(=O)N/C(=C\CCNC(=N)N)C(=O)N[C@@H](CCCCN)C(=O)NCCCCN)[C@@H](O)CN [24.61] (H-[NMeK][Dab(3S-OH)]AG[dOrn]PHK[ΔZArg]K-{NH(CH2)4NH2}) | ++ (≤8 μg/mL) | + (≤32 μg/mL) | ++ (≤8 μg/mL) | + (≤32 μg/mL)
C[C@H](NC(=O)[C@@H](NC(=O)[C@@H](N)CCCCN)[C@@H](O)CN)C(=O)NCC(=O)N[C@H](CCCN)C(=O)N1CCC[C@H]1C(=O)N[C@@H](Cc1cnc[nH]1)C(=O)N[C@@H](CCCCN)C(=O)N/C(=C\CCNC(=N)N)C(=O)N[C@@H](CCCCN)C(=O)O [24.62] (H-K[Dab(3S-OH)]AG[dOrn]PHK[ΔZArg]K-OH) | + (≤32 μg/mL) | − (>32 μg/mL) | ++ (≤8 μg/mL) | − (>32 μg/mL)
CN[C@@H](CCCCN)C(=O)N[C@H](C(=O)N[C@@H](C)C(=O)NCC(=O)N[C@H](CCCN)C(=O)N1CCC[C@H]1C(=O)N[C@@H](Cc1cnc[nH]1)C(=O)N[C@@H](CCCCN)C(=O)N/C(=C\CCNC(=N)N)C(N)=O)[C@@H](O)CN [24.63] (H-[NMeK][Dab(3S-OH)]AG[dOrn]PHK[ΔZArg]-NH2) | ++ (≤8 μg/mL) | − (>32 μg/mL) | ++ (≤8 μg/mL) | − (>32 μg/mL)
CNCCCC[C@H](N)C(=O)N[C@H](C(=O)N[C@@H](C)C(=O)NCC(=O)N[C@H](CCCN)C(=O)N1CCC[C@H]1C(=O)N[C@@H](Cc1cnc[nH]1)C(=O)N[C@@H](CCCCN)C(=O)N/C(=C\CCNC(=N)N)C(N)=O)[C@@H](O)CN [24.64] (H-[Lys(Me)][Dab(3S-OH)]AG[dOrn]PHK[ΔZArg]-NH2) | ++ (≤8 μg/mL) | − (>32 μg/mL) | ++ (≤8 μg/mL) | − (>32 μg/mL)
C[C@H](NC(=O)[C@@H](NC(=O)[C@@H](N)CCCCN)[C@@H](O)CN)C(=O)NCC(=O)N[C@H](CCCN)C(=O)N(C)[C@@H](C)C(=O)N[C@@H](Cc1cnc[nH]1)C(=O)N[C@@H](CCCCN)C(=O)N/C(=C\CCNC(=N)N)C(N)=O [24.65] (H-K[Dab(3S-OH)]AG[dOrn][NMeA]HK[ΔZArg]-NH2) | + (≤32 μg/mL) | − (>32 μg/mL) | ++ (≤8 μg/mL) | − (>32 μg/mL)
C[C@H](NC(=O)[C@@H](NC(=O)[C@@H](N)CCCCN)[C@@H](O)CN)C(=O)NCC(=O)N[C@H](CCCN)C(=O)N1CCC[C@H]1C(=O)N[C@@H](Cc1cnc[nH]1)C(=O)N[C@@H](CCCCN)C(=O)N[C@H](CCCNC(=N)N)C(N)=O [24.68] (H-K[Dab(3S-OH)]AG[dOrn]PHK[dR]-NH2) | + (≤32 μg/mL) | − (>32 μg/mL) | ++ (≤8 μg/mL) | − (>32 μg/mL)
C[C@H](NC(=O)[C@@H](NC(=O)[C@@H](N)CCCCCN)[C@@H](O)CN)C(=O)NCC(=O)N[C@H](CCCN)C(=O)N1CCC[C@H]1C(=O)N[C@@H](Cc1cnc[nH]1)C(=O)N[C@@H](CCCCN)C(=O)N/C(=C\CCNC(=N)N)C(N)=O [24.69] (H-[hLys][Dab(3S-OH)]AG[dOrn]PHK[ΔZArg]-NH2) | + (≤32 μg/mL) | − (>32 μg/mL) | ++ (≤8 μg/mL) | − (>32 μg/mL)
C[C@H](NC(=O)[C@@H](NC(=O)[C@@H](N)CCCCN)[C@@H](O)CN)C(=O)NCC(=O)N[C@H](CCCN)C(=O)N1C[C@H](O)C[C@H]1C(=O)N[C@@H](Cc1cnc[nH]1)C(=O)N[C@@H](CCCCN)C(=O)N/C(=C\CCNC(=N)N)C(=O)O [24.70] (H-K[Dab(3S-OH)]AG[dOrn][Hyp]HK[ΔZArg]-OH) | − (>32 μg/mL) | − (>32 μg/mL) | + (≤32 μg/mL) | − (>32 μg/mL)
C[C@H](NC(=O)[C@@H](NC(=O)[C@@H](N)CCCCN)[C@@H](O)CN)C(=O)NCC(=O)N[C@H](CCCN)C(=O)N1CC[C@H]1C(=O)N[C@@H](Cc1cccc(F)c1)C(=O)N[C@@H](CCCCN)C(=O)N/C(=C\CCNC(=N)N)C(=O)O [24.71] (H-K[Dab(3S-OH)]AG[dOrn][Aze][Phe(3-F)]K[ΔZArg]-OH) | + (≤32 μg/mL) | − (>32 μg/mL) | + (≤32 μg/mL) | − (>32 μg/mL)
C[C@H](NC(=O)[C@@H](NC(=O)[C@@H](N)CCCCN)[C@@H](O)CN)C(=O)NCC(=O)N[C@H](CCCN)C(=O)N1CC[C@H]1C(=O)N[C@@H](Cc1ccc(Cl)cc1)C(=O)N[C@@H](CCCCN)C(=O)N/C(=C\CCNC(=N)N)C(=O)O [24.72] (H-K[Dab(3S-OH)]AG[dOrn][Aze][Phe(4-Cl)]K[ΔZArg]-OH) | + (≤32 μg/mL) | − (>32 μg/mL) | ++ (≤8 μg/mL) | − (>32 μg/mL)

— US10626144B2, “Peptide derivatives and uses thereof” (Nosopharm, priority 2014, dated 2020)
